Data set [1] relates to primary bovine retinal endothelial cells (BREC). The experiment in a line: In vitro permeability assay, VEGF-induced, 70 kDa RITC-Dextran. The format is cell-based. The note with it: siRNA transfection for 72 h, 50 ng/ml VEGF.
For data set [2], the system named is visual loss in diabetic retinopathy. The note with it: clinical trials; cited from earlier work.
Data set [3] deals with PKCβ. The note with it: oral administration; cited from earlier work.

“5’-GCAAUGAACACCAGGGAAA-3’ [PKCι Construct A]”: in data set [1], the “Effect on VEGF-induced increase in retinal endothelial permeability” value was “prevented the VEGF-induced increase in retinal endothelial permeability”.
With `CN(C)C[C@@H]1CCn2cc(c3ccccc32)C2=C(C(=O)NC2=O)c2cn(c3ccccc23)CCO1` [ruboxistaurin], in data set [2], the “Effect on visual loss” value is on record as “delays sustained moderate visual loss in diabetic retinopathy”. Further, in data set [3], the “Effect on diabetes induced-endothelial proliferation and permeability” value is “prevents these pathologic outcomes”.
